Reference: ChEMBL document CHEMBL4049456, “Identification of 4-(Aminomethyl)-6-(trifluoromethyl)-2-(phenoxy)pyridine Derivatives as Potent, Selective, and Orally Efficacious Inhibitors of the Copper-Dependent Amine Oxidase, Lysyl Oxidase-Like 2 (LOXL2)” (J Med Chem, 2017)

Assays:
Lysyl oxidase homolog 2 = target: T1, Lysyl oxidase homolog 2 (Homo sapiens, UniProt Q9Y4K0); test: Inhibition of human LOXL2 expressed in CHO cells assessed as reduction of H2O2 production from oxidative deamination of DAP preincubated for 2 hrs followed by substrate addition measured every 2 mins for 1 hr by amplex red reagent-based fluorescence assay; format: cell-based
T1 sequence (Q9Y4K0 whole entry): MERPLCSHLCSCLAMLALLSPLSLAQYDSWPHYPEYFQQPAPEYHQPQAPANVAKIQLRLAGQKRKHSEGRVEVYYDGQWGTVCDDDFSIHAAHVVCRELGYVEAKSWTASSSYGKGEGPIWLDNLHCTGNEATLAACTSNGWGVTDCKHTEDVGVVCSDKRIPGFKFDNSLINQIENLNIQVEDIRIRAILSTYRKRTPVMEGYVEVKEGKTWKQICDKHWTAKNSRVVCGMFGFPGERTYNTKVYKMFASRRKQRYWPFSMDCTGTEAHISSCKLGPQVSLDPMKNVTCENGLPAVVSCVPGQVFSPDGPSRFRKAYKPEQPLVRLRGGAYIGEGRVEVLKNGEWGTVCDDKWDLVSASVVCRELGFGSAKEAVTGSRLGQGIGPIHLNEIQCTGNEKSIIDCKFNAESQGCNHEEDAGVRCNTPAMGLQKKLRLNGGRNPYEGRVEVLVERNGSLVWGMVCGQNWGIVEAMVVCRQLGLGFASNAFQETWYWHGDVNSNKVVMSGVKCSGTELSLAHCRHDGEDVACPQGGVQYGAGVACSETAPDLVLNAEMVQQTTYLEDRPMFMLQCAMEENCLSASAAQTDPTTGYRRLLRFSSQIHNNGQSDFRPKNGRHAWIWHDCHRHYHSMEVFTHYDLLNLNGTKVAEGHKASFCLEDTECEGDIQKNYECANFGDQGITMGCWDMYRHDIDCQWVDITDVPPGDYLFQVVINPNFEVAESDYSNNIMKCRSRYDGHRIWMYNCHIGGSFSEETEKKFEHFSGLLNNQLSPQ

Protein-lysine 6-oxidase = target: T2, Protein-lysine 6-oxidase (Homo sapiens, UniProt P28300); test: Inhibition of human LOX expressed in HEK cells assessed as reduction of H2O2 production from oxidative deamination of DAP preincubated for 2 hrs followed by substrate addition in presence of 0.1% BSA measured every 2 mins for 1 hr by amplex red reagent-based fluorescence assay; format: cell-based
T2 sequence (P28300 whole entry): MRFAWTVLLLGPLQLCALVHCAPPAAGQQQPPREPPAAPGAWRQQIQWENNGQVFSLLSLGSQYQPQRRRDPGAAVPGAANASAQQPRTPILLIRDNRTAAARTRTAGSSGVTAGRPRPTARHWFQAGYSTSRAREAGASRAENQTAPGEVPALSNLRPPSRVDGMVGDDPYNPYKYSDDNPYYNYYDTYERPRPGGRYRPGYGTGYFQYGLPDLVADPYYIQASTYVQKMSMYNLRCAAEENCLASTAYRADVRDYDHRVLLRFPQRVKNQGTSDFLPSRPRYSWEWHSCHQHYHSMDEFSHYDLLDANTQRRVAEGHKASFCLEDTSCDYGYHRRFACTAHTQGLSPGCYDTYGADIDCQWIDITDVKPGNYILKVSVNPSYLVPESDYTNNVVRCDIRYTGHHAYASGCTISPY

Mus musculus = test: Toxicity in C57BL/6 mouse assessed as body weight loss at 3 to 60 mg/kg, po qd administered 15 days starting 1 day prior to bleomycin instillation; format: organism-based; details: in vivo

## Cl.NCc1cc(Oc2cccc(C(=O)N3C[C@@H](O)[C@H](F)C3)c2)nc(C(F)(F)F)c1 (racemic)
Lysyl oxidase homolog 2
  IC50: 0.078 µM
Protein-lysine 6-oxidase
  IC50: 35 µM
Mus musculus
  Activity: < 5%
